# Experimental data as given in patent US20200277355A1 (GUILIN EIGHT PLUS ONE PHARMACEUTICAL CO., LTD., priority 2017, published 2020).
# pKd: −log10 of the molar value. Read-outs that look alike come from different tables or passages of the source. No end group written: not given here.
# What was measured:
# [1] = tested on: OXZ-induced acute colitis mouse; test: Oxazolone-induced acute colitis mouse model; format: in vivo, Balb/c mice; details: for body weight change: 400 ug/kg/d i.p. 3 days, FIG. 13; for colon length: 3rd day after enema, FIG. 15; for MPO activity in colon tissue: FIG. 17; for serum IFN-γ level / serum IL-1β level / serum IL-6 level / serum IL-10 (anti-inflammatory factor) / serum TNF-α level: FIG. 18; for pathological changes in colon tissue, HE staining: FIG. 19; for expression of TNF-α in colon tissue sections: FIG. 20
# Protocol: Establishment of an oxazolone-induced mouse colitis animal model: Male Balb/c mice, 6-8 weeks old, were randomly divided into 8 groups, each containing 10 mice. On the first day, the back skin of the mouse was shaved (1.5 cm×1.5 cm), and the normal group was coated with 0.15 mL of acetone/olive oil solution (acetone/olive oil volume ratio of 4:1). The model group and the SN10 group were negatively controlled. The drug and the positive control group were skin-coated with 0.15 mL of 3% (w/v) oxazolone (dissolved in acetone/olive oil solution) for skin pre-sensitization. On the 8th day, the mice were anesthetized by intraperitoneal injection of 4% chloral hydrate. The 3.51 catheter was slowly and gently inserted into the colon of the mouse about 4 cm from the anus. The normal group was injected with 0.1 mL of 50% ethanol, and the other groups were injected with […]. 1% (w/v) oxazolone (dissolved in 50% ethanol), slowly pull out the catheter, keep the mouse vertical, head down position for 60 s, so that the drug solution is fully left in the intestinal lumen. After enema, the normal group and the model group were given intraperitoneal injection of 0.1 mL of normal saline. […] The injection dose was 400 ug/kg/d, and the positive drug group was given 0.1 mL sulfasalazine and intravesical injection of infliximab (dissolved in normal saline) at doses of 400 mg/kg/d and 5 mg/respectively. Each kg/d was administered continuously for 3 days.
# The body weight changes, stool characteristics and blood in the stool were observed and recorded daily after enema.
# On the 3rd day after enema, the mice were sacrificed by cervical dislocation. The colon and spleen were removed immediately. The length of the colon was measured.
# Part of the diseased colon tissue was excised and weighed. MPO) activity in mouse colon tissue was detected using a myeloperoxidase (MPO) assay kit (Nanjing Institute of Bioengineering). MPO is a functional marker and activation marker for neutrophils and is involved in many processes that regulate inflammatory responses. Excessive MPO activity catalyzes the reaction to produce excess oxidants, causing local oxidative stress and oxidative tissue damage.
# The colon of the mouse were washed with saline, fixed in 10% formalin. Tissue sections were prepared and stained with HE.
# [2] = tested on: DSS-induced acute colitis mouse; test: Dextran sulfate sodium-induced acute colitis mouse model; format: in vivo, Balb/c mice; details: for body weight change: DSS 2.5% 7 days, 400 μg/kg/d intraperitoneal, FIG. 5; for myeloperoxidase (MPO) activity in colon tissue: FIG. 9; for serum IFN-γ content / serum IL-6 content / serum IL-10 (anti-inflammatory factor) / serum IL-β content / serum TNF-α content: FIG. 10; for colonic lesions, HE staining: FIG. 11; for TNF-α expressed in colon tissue sections: FIG. 12; for colon length: day 7, FIG. 7
# Protocol: The specific implementation steps are as follows: Balb/c mice 6-8 weeks old were randomly divided into 8 groups, each group containing 10 mice.
# According to Table 2, the disease activity index (DAI) score was obtained. […] Seven days after the model was established, the mouse were sacrificed by cervical dislocation, and the entire colon and spleen were removed. […] The spleen weight was measured and the spleen index was calculated.
# [3] = Plasma half-life in SD rats (ELISA); format: in vivo
# Protocol: The assay was performed according to the manufacturer's instructions using an ELISA kit purchased from Genzyme. Serum samples were collected from the […] with heparinized 50 μL capillaries, and blood samples were collected at 1 min, 2 min, 3 min, 5 min, 10 min, 15 min, 20 min, 30 min, 45 min, 1 h, 2 h, 4 h, 6 h, 8 h after treatment. After standing for 2 h, the sample was centrifuged, and the obtained supernatant was stored at −20° C. for testing.
# [4] = target: T1, TNFR2 (Homo sapiens, UniProt P20333); test: MST binding of Hydrostatin-SN10 to TNFR2
# T1 sequence (P20333 23-461): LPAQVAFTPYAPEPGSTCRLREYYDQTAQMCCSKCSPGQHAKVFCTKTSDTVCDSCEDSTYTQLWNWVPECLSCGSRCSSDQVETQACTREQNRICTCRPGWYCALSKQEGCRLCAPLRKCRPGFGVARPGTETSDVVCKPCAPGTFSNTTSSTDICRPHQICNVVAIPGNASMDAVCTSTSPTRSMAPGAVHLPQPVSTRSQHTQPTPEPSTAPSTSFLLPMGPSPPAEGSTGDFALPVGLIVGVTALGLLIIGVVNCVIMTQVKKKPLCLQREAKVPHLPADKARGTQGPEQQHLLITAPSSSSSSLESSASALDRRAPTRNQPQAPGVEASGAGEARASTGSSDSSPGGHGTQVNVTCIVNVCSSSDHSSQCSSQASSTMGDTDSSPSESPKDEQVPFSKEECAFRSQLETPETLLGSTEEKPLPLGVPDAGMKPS
# [5] = target: T2, TNF-α (Homo sapiens, UniProt P01375); test: MST binding of Hydrostatin-SN10 to TNF-α; details: fluorescently labeled TNF-α
# [6] = target: T3, TNFR1 (Homo sapiens, UniProt P19438); test: biochemical
# T3 sequence (P19438 30-455): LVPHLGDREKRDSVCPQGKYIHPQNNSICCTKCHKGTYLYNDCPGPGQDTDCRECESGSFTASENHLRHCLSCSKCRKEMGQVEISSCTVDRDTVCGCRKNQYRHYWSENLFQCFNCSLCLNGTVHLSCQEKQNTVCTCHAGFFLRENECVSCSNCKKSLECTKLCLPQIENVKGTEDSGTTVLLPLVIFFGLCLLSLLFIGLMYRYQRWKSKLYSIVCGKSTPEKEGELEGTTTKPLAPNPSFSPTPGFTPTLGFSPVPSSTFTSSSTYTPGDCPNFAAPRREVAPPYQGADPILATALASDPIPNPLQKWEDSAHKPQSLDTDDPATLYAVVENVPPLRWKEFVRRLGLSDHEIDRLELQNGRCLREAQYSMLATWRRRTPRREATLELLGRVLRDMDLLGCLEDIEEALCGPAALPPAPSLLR
# [7] = Isoelectric point of Hydrostatin-SN10; format: physicochemical
# [8] = target: T4, TNFR1-TNF-α binding (Homo sapiens, UniProt P19438); test: MST competitive inhibition of TNFR1-TNF-α binding
# T4 sequence (P19438 30-211 limits assumed): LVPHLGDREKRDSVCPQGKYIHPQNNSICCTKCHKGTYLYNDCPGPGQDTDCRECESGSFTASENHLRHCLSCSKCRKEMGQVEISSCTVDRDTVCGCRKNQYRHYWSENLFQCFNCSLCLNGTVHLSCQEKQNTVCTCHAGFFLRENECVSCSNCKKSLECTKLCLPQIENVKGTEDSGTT
# Source text: On-machine detection, software fitting to find the KD value. The changes of TNF-α saturation concentration, response amplitude and KD value before and after Hydrostatin-SN10 were compared.
# [9] = target: T3, TNFR1; test: biochemical; remark: listed apart in the source
# [10] = target: T5, TNF-α-TNFR1 binding (Homo sapiens, UniProt P19438); test: BIAcore (SPR) competitive inhibition of TNF-α-TNFR1 binding
# T5 sequence (P19438 30-211 limits assumed): T4 sequence (P19438 30-211 limits assumed)
# [11] = target: T2, TNF-α; test: BIAcore (SPR) binding of Hydrostatin-SN10 to TNF-α
Substance,overall treatment effect in oxazolone-induced colitis ([1]; 400 ug/kg/d i.p.),body weight change [1],colon length ([1]; 400 ug/kg/d i.p.),MPO activity in colon tissue ([1]; 400 ug/kg/d i.p.),serum IFN-γ level ([1]; 400 ug/kg/d i.p.),serum IL-1β level ([1]; 400 ug/kg/d i.p.),serum IL-6 level ([1]; 400 ug/kg/d i.p.),serum IL-10 (anti-inflammatory factor) ([1]; 400 ug/kg/d i.p.),serum TNF-α level ([1]; 400 ug/kg/d i.p.),"pathological changes in colon tissue, HE staining ([1]; 400 ug/kg/d i.p.)",expression of TNF-α in colon tissue sections ([1]; 400 ug/kg/d i.p.),body weight change [2],"overall treatment effect in DSS-induced colitis ([2]; DSS, 400 μg/kg/d i.p.)","myeloperoxidase (MPO) activity in colon tissue ([2]; DSS, 400 μg/kg/d i.p.)","serum IFN-γ content ([2]; DSS, 400 μg/kg/d i.p.)","serum IL-6 content ([2]; DSS, 400 μg/kg/d i.p.)","serum IL-10 (anti-inflammatory factor) ([2]; DSS, 400 μg/kg/d i.p.)","serum IL-β content ([2]; DSS, 400 μg/kg/d i.p.)","serum TNF-α content ([2]; DSS, 400 μg/kg/d i.p.)","colonic lesions, HE staining ([2]; DSS, 400 μg/kg/d i.p.)",further results
PEG-SN10: Hydrostatin-SN10 modified with mPEG2000; carboxyl group of mPEG2000 covalently linked to free amino group of N-terminal aspartic acid (mPEG2000-DEQHLETELH),effective in the treatment of oxazolone-induced mouse colitis animal model,significantly reduced the weight loss,significantly improved colon length,effective in inhibiting the increase in MPO activity,significantly reduced,significantly reduced,significantly reduced,significantly increased,significantly reduced,significantly attenuated pathological changes in mouse colon tissue,significantly reduced,effective in inhibiting the weight loss,effective in treating DSS-induced colitis animal models,significantly reduce MPO activity,significantly decreased,significantly decreased,significantly increased,significantly decreased,significantly decreased,effectively inhibit colonic lesions caused by DSS,"TNF-α expressed in colon tissue sections ([2]; DSS, 400 μg/kg/d i.p.): alleviate the degree of inflammation in the colon tissue; colon length ([2]; DSS, 400 μg/kg/d i.p.): significantly improved the colon length; plasma half-life compared with Hydrostatin-SN10 ([3]; after PEG modification): longer plasma half-life"
H-DEQHLETELH [Hydrostatin-SN10],effective in the treatment of oxazolone-induced mouse colitis animal model,significantly reduced the weight loss,significantly improved colon length,effective in inhibiting the increase in MPO activity,significantly reduced,significantly reduced,significantly reduced,significantly increased,significantly reduced,significantly attenuated pathological changes in mouse colon tissue,significantly reduced,effective in inhibiting the weight loss,effective in treating DSS-induced colitis animal models,significantly reduce MPO activity,significantly decreased,significantly decreased,significantly increased,significantly decreased,significantly decreased,effectively inhibit colonic lesions caused by DSS,"disease activity index (DAI) score ([1]; 400 ug/kg/d i.p., FIG. 14): effectively alleviate the symptoms of diarrhea and blood in the stool; spleen index ([1]; 400 ug/kg/d i.p., FIG. 16): significantly down-regulate the mouse spleen index; binding to TNFR2 ([4]; fluorescently labeled TNFR2): not binding; binding to TNFR2 ([4]; fluorescently labeled TNFR2, listed as SN10): no binding; binding to TNF-α [5]: not binding; binding to TNF-α ([5]; listed as SN10): no binding; pKd [6]: 5.55; isoelectric point [7]: 4.39; competitive inhibition of the interaction of TNFR1 and TNF-α [8]: competitively inhibit; pKd [9]: ~5.55; competitive inhibition of the interaction of TNFR1 with TNF-α [10]: competitively inhibits; disease activity index (DAI) score ([2]; DSS, 400 μg/kg/d i.p., FIG. 6): effectively alleviate the symptoms of diarrhea and blood in the stool; spleen index ([2]; DSS, 400 μg/kg/d i.p., FIG. 8): effectively inhibit spleen changes caused by colitis; TNF-α expressed in colon tissue sections ([2]; DSS, 400 μg/kg/d i.p.): alleviate the degree of inflammation in the colon tissue; colon length ([2]; DSS, 400 μg/kg/d i.p.): significantly improved the colon length; binding to TNF-α [11]: does not bind; binding to TNF-α ([11]; listed as SN10): no binding; half-life ([3]; rat, plasma, ELISA): 131 min"
